Assay results: patent publication US20080262021A1, “1H-Imidazoquinoline Derivatives as Prote In Kinase Inhibitors” (NOVARTIS AG, priority 2003, published 2008)

Tests used:
[1] = biological target: T1, ALK (Homo sapiens, UniProt Q9UM73); assay: ALK tyrosine kinase inhibition (GST-ALK filter binding assay); type: biochemical; conditions: for IC50: read-out: IC50 Range Class, inhibition of ALK
T1 construct: using the recombinant kinase domain of the ALK in analogy to the VEGF-R kinase assay
Procedure: See Wood et al., Cancer Res, Vol. 60, No. 8, pp. 2178-2189 (2000). In vitro enzyme assays using GST-ALK protein tyrosine kinase are performed in 96-well plates as a filter binding assay in 20 mM tris-HCl, pH=7.5, 3 mM MgCl2, 10 mM MnCl2, 1 mM DTT, 0.1 μCi/assay (=30 μL) [γ-^33P]-ATP, 2 μM ATP, 3 μg/mL poly (Glu, Tyr 4:1) Poly-EY (Sigma P-0275), 1% DMSO, 25 ng ALK enzyme. Assays are incubated for 10 minutes at ambient temperature. Reactions are terminated by adding 50 μL of 125 mM EDTA, and the reaction mixture is transferred onto a MAIP Multiscreen plate (Millipore, Bedford, Mass., USA), previously wet with methanol, and re-hydrated for 5 minutes with H2O. Following washing (0.5% H3PO4), plates are counted in a liquid scintillation counter. IC50 values are calculated by linear regression analysis of the percentage inhibition. Compared with the control without inhibitor, the compounds of formula (I) inhibit the enzyme activity by 50% (IC50), e.g., in a concentration of from 0.001-0.5 μM, especially from […].

[2] = biological target: T2, S6K1 (Homo sapiens, UniProt P23443, T412E); assay: S6K1 kinase inhibition (S6K1ΔCT/T412E, TR-FRET); type: biochemical; conditions: read-out: IC50 Range Class, inhibition of S6K1
T2 construct: His (N); made in house; host or cells: Sf9 insect cells (baculovirus, pFastBacHT A), co-infected with GST-PDK1 virus
Description: The DNA fragment encoding S6K1ΔCT/T412E is subcloned to the baculovirus donor vector pFastBacHT A to generate a recombinant baculovirus that expresses S6K1ΔCT/T412E. Transfer vectors for S6K1ΔCT/T412E are transfected into the DH10Bac cell line (GIBCO). After selection of white colonies, they are used for viral DNA (bacmid) preparation. Sf9 cells (American Type Culture Collection) cells are then transfected with the viral DNA using Cellfectin reagent. Virus-containing media is collected from the transfected cell culture and is used for infection to increase its titer. For large-scale protein expression, Sf9 cells are co-infected with S6K1ΔCT/T412E and GST-PDK1 virus-containing media with MOI of 2.25 and 1, respectively. After 3 days, the cells expressing the recombinant enzyme are resuspended in the culture medium with a sterilized cell scraper and harvested by centrifugation. The cells are resuspended in 5 volumes of cell pellet of Extraction Buffer (50 mM MOPS pH 7.0, containing 300 mM NaCl, 0.05% Tween-20, 10 mM sodium pyrophosphate, 50 mM β-glycerophosphate, 0.2 mM cantharidic acid and 1× complete-EDTA protease inhibitor cocktail) and then disrupted with 15 strokes of a Dounce homogenizer followed by sonication on ice. The homogenate is centrifuged at 4° C. for 60 minutes at 48,000×g. The supernatant is clarified with a 5 μm filter and subjected to purification with TALON Superflow Resin (Clontech). First, 1 mL of TALON resin per 5 mL of the supernatant was equilibrated with the Extraction Buffer and resuspended in the supernatant followed by gentle agitation for 20 minutes at RT. After centrifugation at 700×g for 5 minutes, supernatant is removed. The resin is washed twice by adding 10 bed volumes of the Extraction Buffer, agitating for 10 minutes at RT, centrifugating at 700×g for 5 minutes, and discarding the supernatant. The resin is then resuspended with the same volume of the Extraction Buffer and transferred to an disposable chromatography column. The packed column is washed once with 10 bed volumes of the Extraction Buffer and additionally with the same volume of Wash Buffer (5 mM imidazole in the Extraction Buffer). Then, the His-tagged S6K1ΔCT/T412E is eluted with four bed volumes of Elution Buffer (150 mM imidazole in the Extraction Buffer).
Measure of enzyme activity: The kinase assay with purified S6K1ΔCT/T412E is performed with TR-FRET (Time-Resolved Fluorescene Resonance Energy Transfer) technology. First, ATP-dependent phosphorylation of the biotinylated substrate peptide corresponding to residues 229-242 of S6 ribosomal protein (Biot-AKRRRLSSLRASTS) is carried out for 1 hour at 37° C. in […] under humidified air. The kinase reaction mixture of the final volume of 9 μL contains 2.57 ng of purified S6K1ΔCT/T412E protein, 50 mM MOPS (pH 7.0), 0.1 mM EGTA, 0.01 mM Na3VO4, 0.05% Tween-20, 0.01% BSA, 1 mM DTT, 10 mM MgCl2, 3 μM ATP, 0.5 μM biotinylated substrate peptide, 1% of DMSO or the text compounds of the formula (I) at the required concentration in 1% DMSO. For measurement of background, 20 mM of EDTA is added to the reaction mixture. […] Phosphorylated peptide indicative of kinase activity is quantitated by exciting the sample at 330 nm and comparing donor emission at 615 nm and acceptor emission at 665 nm by 2101 EnVision HTS multilabel plate reader (Perkin Elmer). […]

T1 sequence (Q9UM73 1116-1392 limits assumed): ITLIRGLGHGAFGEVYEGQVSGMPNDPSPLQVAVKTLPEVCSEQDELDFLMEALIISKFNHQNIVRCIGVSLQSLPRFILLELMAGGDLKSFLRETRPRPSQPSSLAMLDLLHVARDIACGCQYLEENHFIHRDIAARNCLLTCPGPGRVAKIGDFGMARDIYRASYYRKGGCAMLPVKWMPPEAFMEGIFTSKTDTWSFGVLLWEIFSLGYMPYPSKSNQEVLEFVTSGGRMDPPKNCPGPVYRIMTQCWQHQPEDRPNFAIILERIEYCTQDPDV
T2 sequence (P23443 1-421 T412E): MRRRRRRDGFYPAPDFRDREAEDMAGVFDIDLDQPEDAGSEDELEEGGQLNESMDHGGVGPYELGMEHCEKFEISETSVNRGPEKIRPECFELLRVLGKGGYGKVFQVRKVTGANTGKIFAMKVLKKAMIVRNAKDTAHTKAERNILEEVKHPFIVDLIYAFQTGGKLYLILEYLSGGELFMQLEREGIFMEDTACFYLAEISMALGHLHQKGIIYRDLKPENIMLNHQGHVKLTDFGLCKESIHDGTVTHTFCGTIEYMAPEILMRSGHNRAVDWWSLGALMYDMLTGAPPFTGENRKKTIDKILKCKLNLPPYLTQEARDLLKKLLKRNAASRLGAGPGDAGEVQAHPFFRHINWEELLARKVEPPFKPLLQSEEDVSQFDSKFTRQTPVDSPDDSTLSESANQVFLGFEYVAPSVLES

| SMILES | IC50 [1] | IC50 [2] | IC50 Range Class, inhibition of ALK [1] |
| --- | --- | --- | --- |
| NCCc1ccc(-n2cnc3cnc4ccc(-c5ccc6[nH]ccc6c5)cc4c32)c(Cl)c1 [Example 11, 2-{3-Chloro-4-[8-(1H-indol-5-yl)-imidazo[4,5-c]quinolin-1-yl]-phenyl}-ethylamine] | ≤ 0.5 µM | ≤ 0.5 µM |  |
| NCCc1ccc(-n2cnc3cnc4ccc(-c5ccc6[nH]ccc6c5)cc4c32)cc1F [Example 18, 2-{2-Fluoro-4-[8-(1H-indol-5-yl)-imidazo[4,5-c]quinolin-1-yl]-phenyl}-ethylamine] |  | ≤ 0.5 µM | B/A |
| NCCCc1ccc(-n2cnc3cnc4ccc(-c5ccc6[nH]ccc6c5)cc4c32)c(Cl)c1 [Example 48, 3-{3-Chloro-4-[8-(1H-indol-5-yl)-imidazo[4,5-c]quinolin-1-yl]-phenyl}-propylamine] | ≤ 0.5 µM |  |  |
